Source: publication doi:10.1101/2024.08.13.607785v1 (biorxiv, 2024)

Key:
Parameters in all cases: species or system mixed lysate of K562, MV4-11, THP-1, NCI-H1155
[1] = molecular target: Mitogen-activated protein kinase kinase kinase 4 ; MAP3K4 ; Q9Y6R4 (Homo sapiens, UniProt Q9Y6R4); conditions: binder
[2] = molecular target: T1, Cyclin-G-associated kinase ; GAK ; O14976 (Homo sapiens, UniProt O14976); conditions: DDA-MS residual binding; binder
T1 sequence (O14976 1-1311): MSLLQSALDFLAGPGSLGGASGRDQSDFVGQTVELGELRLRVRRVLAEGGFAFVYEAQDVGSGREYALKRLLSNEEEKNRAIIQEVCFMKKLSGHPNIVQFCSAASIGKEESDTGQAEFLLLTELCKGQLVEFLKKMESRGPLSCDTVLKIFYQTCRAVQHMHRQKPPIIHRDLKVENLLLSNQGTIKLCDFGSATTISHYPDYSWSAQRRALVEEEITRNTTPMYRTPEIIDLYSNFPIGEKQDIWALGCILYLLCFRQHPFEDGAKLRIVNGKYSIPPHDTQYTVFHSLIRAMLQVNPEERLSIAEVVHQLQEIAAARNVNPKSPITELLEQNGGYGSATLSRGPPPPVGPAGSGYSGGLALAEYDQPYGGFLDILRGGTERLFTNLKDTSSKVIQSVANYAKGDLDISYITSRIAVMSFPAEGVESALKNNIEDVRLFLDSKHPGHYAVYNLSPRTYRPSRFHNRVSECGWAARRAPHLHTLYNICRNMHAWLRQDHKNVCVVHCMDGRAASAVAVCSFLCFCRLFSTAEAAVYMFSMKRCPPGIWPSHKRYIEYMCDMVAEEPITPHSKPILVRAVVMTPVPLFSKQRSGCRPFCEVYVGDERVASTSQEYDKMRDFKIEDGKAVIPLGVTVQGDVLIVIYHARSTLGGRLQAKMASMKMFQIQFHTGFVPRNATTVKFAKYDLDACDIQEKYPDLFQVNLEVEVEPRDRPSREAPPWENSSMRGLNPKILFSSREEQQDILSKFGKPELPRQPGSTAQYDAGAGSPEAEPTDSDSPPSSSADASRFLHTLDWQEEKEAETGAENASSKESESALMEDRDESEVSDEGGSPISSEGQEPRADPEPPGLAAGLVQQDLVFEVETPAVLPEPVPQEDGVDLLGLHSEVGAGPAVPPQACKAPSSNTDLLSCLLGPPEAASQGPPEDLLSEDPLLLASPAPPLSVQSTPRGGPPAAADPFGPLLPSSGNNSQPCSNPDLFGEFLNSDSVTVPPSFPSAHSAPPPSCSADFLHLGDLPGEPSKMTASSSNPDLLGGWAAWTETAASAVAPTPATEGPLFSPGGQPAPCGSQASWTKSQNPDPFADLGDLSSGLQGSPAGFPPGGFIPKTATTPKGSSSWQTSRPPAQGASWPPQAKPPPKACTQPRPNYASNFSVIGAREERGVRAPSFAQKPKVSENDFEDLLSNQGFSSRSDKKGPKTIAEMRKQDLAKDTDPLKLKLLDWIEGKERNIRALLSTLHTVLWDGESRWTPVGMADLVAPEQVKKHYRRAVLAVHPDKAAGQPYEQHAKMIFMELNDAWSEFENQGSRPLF

[3] = molecular target: Serine/threonine-protein kinase LMTK2 ; LMTK2 ; Q8IWU2 (Homo sapiens, UniProt Q8IWU2); conditions: DDA-MS residual binding; binder
Serine/threonine-protein kinase LMTK2 ; LMTK2 ; Q8IWU2, sequence (Q8IWU2 whole entry, the tested form may be a part, one chain of several): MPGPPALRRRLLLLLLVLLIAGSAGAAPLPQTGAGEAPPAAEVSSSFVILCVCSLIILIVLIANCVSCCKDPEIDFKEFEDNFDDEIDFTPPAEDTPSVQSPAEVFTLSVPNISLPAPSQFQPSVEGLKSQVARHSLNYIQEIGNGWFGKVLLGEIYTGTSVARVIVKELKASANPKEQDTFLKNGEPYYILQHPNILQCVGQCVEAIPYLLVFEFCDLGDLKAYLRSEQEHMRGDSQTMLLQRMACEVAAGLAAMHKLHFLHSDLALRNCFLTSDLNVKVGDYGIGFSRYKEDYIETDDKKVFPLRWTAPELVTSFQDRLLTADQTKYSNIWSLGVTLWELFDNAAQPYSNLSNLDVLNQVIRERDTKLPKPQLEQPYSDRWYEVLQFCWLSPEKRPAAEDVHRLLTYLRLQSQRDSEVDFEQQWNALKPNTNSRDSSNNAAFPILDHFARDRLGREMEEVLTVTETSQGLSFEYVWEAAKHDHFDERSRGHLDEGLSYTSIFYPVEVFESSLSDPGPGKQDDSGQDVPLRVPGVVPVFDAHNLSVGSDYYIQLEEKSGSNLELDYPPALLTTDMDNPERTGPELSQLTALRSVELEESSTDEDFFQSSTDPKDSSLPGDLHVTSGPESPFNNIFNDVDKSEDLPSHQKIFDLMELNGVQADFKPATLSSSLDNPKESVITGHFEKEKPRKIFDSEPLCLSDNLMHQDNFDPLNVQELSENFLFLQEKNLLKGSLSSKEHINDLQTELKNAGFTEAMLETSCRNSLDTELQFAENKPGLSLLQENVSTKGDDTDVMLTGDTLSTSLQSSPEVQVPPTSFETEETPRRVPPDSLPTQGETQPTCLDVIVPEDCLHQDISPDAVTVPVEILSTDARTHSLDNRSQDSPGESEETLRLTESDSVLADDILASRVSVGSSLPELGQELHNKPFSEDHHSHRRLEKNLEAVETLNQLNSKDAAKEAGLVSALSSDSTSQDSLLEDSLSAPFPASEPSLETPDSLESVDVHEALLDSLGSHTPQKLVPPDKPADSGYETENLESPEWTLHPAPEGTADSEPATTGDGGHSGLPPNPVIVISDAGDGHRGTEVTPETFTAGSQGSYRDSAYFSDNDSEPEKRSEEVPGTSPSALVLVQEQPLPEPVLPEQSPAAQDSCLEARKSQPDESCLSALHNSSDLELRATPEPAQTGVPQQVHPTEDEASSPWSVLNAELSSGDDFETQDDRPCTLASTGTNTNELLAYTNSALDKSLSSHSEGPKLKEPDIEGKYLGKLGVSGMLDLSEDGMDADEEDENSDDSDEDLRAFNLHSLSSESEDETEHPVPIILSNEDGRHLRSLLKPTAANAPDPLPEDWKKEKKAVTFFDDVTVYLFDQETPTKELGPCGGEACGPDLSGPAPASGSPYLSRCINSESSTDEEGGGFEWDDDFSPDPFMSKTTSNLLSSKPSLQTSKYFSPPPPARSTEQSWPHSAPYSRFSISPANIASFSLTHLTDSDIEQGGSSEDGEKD

[4] = molecular target: LIM domain kinase 2 ; LIMK2 ; P53671 (Homo sapiens, UniProt P53671); conditions: DDA-MS residual binding; binder
LIM domain kinase 2 ; LIMK2 ; P53671, sequence (P53671 whole entry, the tested form may be a part): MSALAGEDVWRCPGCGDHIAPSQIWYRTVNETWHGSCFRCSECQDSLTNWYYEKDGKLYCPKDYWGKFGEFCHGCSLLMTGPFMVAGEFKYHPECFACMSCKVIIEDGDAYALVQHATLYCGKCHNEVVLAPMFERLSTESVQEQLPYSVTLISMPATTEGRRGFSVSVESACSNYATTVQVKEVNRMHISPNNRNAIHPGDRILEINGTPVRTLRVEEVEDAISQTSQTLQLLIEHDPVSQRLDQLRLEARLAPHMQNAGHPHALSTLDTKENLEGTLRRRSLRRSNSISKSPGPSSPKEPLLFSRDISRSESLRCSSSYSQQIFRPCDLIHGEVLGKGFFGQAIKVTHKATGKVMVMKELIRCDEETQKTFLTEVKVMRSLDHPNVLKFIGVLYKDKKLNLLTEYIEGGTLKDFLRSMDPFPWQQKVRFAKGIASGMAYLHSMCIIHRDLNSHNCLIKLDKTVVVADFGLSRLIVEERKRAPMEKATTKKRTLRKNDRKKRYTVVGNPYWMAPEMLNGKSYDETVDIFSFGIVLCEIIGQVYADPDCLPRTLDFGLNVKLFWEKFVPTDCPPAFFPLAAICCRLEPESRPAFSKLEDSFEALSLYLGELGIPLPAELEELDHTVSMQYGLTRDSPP

[5] = molecular target: Tyrosine-protein kinase Yes ; YES1 ; P07947 (Homo sapiens, UniProt P07947); conditions: binder
Tyrosine-protein kinase Yes ; YES1 ; P07947, sequence (P07947 whole entry): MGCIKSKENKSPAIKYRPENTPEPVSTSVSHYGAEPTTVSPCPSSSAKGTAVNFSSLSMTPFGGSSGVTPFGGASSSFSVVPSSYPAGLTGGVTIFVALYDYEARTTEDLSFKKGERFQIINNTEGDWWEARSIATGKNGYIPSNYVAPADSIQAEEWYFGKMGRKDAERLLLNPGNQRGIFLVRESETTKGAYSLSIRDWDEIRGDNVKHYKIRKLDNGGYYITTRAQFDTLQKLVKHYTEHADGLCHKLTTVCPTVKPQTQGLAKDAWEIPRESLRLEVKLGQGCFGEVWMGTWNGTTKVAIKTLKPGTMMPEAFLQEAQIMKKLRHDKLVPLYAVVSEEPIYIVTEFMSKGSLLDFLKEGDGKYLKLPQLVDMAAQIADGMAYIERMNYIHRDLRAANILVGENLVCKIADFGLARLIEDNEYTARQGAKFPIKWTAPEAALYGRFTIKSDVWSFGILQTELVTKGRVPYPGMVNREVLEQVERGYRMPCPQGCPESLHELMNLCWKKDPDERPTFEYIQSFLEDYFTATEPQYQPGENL

[6] = molecular target: Tyrosine-protein kinase HCK ; HCK ; P08631 (Homo sapiens, UniProt P08631); conditions: DDA-MS residual binding; binder
Tyrosine-protein kinase HCK ; HCK ; P08631, sequence (P08631 whole entry): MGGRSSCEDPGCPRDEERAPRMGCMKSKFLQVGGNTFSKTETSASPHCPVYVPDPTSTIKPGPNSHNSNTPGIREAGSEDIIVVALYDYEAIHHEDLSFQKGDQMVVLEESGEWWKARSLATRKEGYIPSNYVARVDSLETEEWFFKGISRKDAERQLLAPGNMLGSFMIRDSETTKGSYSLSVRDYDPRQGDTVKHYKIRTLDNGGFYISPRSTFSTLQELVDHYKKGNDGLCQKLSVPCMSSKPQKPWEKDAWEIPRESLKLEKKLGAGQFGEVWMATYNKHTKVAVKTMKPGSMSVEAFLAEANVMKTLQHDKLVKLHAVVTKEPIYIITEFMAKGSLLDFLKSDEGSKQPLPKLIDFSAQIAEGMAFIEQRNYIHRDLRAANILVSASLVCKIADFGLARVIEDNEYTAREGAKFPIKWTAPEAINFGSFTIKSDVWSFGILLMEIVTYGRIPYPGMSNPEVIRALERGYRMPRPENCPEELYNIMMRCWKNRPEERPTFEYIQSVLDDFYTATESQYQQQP

[7] = molecular target: Tyrosine-protein kinase CSK ; CSK ; P41240 (Homo sapiens, UniProt P41240); conditions: binder

Mitogen-activated protein kinase kinase kinase 4 ; MAP3K4 ; Q9Y6R4, sequence (Q9Y6R4 whole entry): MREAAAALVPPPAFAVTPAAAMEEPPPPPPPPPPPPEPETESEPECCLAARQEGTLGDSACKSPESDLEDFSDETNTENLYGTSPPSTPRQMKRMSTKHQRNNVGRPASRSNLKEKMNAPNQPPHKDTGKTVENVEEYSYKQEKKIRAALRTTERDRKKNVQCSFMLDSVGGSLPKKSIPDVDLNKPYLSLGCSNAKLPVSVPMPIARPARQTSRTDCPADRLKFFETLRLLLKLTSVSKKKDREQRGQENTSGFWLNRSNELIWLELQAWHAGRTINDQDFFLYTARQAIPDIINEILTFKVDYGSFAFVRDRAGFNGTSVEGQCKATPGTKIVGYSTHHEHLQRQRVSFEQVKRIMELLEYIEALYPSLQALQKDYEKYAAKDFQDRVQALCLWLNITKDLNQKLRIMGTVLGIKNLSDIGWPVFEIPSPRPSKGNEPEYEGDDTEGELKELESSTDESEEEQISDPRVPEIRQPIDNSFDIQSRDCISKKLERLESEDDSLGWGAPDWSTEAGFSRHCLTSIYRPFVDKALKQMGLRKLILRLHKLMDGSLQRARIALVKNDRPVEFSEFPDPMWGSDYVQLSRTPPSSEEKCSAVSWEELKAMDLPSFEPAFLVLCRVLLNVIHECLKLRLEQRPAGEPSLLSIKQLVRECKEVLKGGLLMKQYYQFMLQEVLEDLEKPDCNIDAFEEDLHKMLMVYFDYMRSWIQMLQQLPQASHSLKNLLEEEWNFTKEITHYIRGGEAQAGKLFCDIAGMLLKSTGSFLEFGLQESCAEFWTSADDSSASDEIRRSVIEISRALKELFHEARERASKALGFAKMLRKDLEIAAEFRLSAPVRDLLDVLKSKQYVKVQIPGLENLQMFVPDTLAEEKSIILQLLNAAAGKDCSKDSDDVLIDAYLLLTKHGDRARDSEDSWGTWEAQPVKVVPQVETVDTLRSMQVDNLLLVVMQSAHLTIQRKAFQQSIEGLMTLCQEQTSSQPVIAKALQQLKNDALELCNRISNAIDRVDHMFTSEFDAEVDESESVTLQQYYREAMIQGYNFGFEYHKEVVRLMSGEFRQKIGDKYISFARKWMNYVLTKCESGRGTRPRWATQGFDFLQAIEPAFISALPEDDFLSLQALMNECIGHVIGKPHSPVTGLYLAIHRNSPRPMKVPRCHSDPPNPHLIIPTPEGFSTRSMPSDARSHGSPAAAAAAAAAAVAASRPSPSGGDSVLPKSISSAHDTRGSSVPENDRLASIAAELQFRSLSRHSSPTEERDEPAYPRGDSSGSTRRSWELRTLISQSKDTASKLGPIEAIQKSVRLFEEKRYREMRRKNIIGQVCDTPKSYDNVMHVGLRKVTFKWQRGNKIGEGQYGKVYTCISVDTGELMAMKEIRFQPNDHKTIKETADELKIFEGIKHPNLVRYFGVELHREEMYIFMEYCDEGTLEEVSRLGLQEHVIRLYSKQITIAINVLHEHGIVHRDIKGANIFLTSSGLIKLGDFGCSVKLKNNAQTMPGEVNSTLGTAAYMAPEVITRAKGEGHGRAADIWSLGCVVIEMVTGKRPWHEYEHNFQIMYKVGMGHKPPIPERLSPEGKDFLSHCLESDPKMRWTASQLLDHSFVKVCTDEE

DDA-MS / % Intensity (30 µM/DMSO) [1]: 9.795%
DDA-MS / % Intensity (30 µM/DMSO) [2]: 1.947%
DDA-MS / % Intensity (30 µM/DMSO) [3]: 9.69%
DDA-MS / % Intensity (30 µM/DMSO) [4]: 7.37%
DDA-MS / % Intensity (30 µM/DMSO) [5]: 0.4709%
DDA-MS / % Intensity (30 µM/DMSO) [6]: 2.041%
DDA-MS / % Intensity (30 µM/DMSO) [7]: 0.3688%
SMILES: Cc1nc(Nc2ncc(C(=O)Nc3c(C)cccc3Cl)s2)cc(N2CCN(CCO)CC2)n1 [dasatinib]
